{
  "source": "patent US20160274087A1",
  "about": "“SCREENING ASSAY FOR AGENTS THAT INFLUENCE BETA CELL NUMBER AND/OR PHENOTYPE” (VRIJE UNIVERSITEIT BRUSSEL, priority 2013, published 2016)",
  "key": {"rat beta cells [1]": {"system": "rat beta cells", "test": "Glucose utilization and oxidation by isolated beta cells", "type": "cell-based", "details": "6-day HC treatment", "method": "FIG. 9: Glucose utilization and oxidation by isolated beta cells after treatment with HC. Purified rat beta cells were cultured for six days in control medium (white squares) or with HC (black triangles) at 10 mM glucose. Glucose utilization (A) was determined by the rate of D-(5-^3H)glucose conversion into ^3H2O and glucose oxidation (B) by that of D-(U-^14C)glucose into ^14CO2 during a 2 h incubation period at the indicated concentrations of glucose without HC. Values represent means±SEM, n=6; *, p<0.05 versus control.\nBecause GC signaling controls metabolic processes including glucose metabolism and we have previously reported that glucose regulates rat beta cell numbers through effects on beta cell survival and proliferation (Assefa et al., 2014)(Example 1), we investigated whether HC-induced beta cell proliferation is associated with a change in glucose metabolism. First, the metabolic effect of a 6-day treatment with HC was analyzed by 2 h glucose utilization and oxidation rates at different glucose concentrations. […] Further, HC treatment doubles the rates of both utilization and oxidation at 10 mM glucose as compared to those in control cells (p<0.05)."}, "[2]": {"target": "T1, mineralocorticoid receptor (MR) (Homo sapiens, UniProt P08235)", "T1 sequence (P08235 1-984)": "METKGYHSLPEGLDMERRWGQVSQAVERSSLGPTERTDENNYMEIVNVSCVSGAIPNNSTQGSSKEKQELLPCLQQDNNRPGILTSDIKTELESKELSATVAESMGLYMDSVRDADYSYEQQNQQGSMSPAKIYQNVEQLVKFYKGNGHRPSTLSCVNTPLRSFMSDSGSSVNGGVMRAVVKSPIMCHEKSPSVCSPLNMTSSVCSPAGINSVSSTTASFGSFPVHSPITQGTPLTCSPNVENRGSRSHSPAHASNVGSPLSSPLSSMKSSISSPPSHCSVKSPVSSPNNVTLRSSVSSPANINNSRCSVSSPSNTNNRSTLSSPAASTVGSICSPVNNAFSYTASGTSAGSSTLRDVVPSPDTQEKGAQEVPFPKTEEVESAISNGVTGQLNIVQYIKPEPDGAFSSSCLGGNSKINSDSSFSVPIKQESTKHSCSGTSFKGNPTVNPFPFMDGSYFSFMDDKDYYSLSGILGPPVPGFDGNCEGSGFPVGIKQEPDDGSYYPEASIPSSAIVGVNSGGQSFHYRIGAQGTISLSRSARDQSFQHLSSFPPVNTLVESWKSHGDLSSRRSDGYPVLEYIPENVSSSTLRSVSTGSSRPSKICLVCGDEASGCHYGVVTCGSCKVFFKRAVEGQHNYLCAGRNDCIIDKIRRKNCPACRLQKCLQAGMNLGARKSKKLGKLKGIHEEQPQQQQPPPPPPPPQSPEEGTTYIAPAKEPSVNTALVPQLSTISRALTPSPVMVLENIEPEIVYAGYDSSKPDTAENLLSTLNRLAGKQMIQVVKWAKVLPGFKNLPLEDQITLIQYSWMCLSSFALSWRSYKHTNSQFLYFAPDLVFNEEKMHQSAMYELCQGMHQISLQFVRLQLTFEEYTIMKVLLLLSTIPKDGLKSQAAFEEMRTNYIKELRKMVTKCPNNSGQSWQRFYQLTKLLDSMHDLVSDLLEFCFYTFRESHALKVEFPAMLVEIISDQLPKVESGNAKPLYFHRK", "details": "cited from earlier work"}, "rat beta cells [3]": {"system": "rat beta cells", "test": "Beta cell DNA synthesis/proliferation by EdU (and BrdU) incorporation, incl. LOPAC screen", "type": "cell-based", "in_short": "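Sorted beta cells on 804G matrix were cultured at 37° C in Ham F10 with 50 μM IBMX and 10 mM glucose. In the LOPAC screen, compounds were added on day 1, with EdU (10 μM) from days 3–6. Imaged % EdU-positive cells defined hits at a Z-score above three SD.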"}},
  "data": [
    {"smiles": "C[C@]12CCC(=O)C=C1CC[C@@H]1[C@@H]2[C@@H](O)C[C@@]2(C)[C@H]1CC[C@]2(O)C(=O)CO", "note": "[Hydrocortisone, hydrocortisone]", "values": [
      {"measurement": "rates of glucose utilization and oxidation compared to control cells", "setting": "rat beta cells [1]; 10 mM glucose", "result": "doubles"},
      {"measurement": "increase of glucose utilization and oxidation over control cells", "setting": "rat beta cells [1]; 20 mM glucose", "result": 50, "unit": "%"},
      {"measurement": "Relative Potencies MR", "setting": "[2]", "result": 1},
      {"measurement": "Percent EdU+ cells", "setting": "rat beta cells [3]; LOPAC screen at 1 μM, adult rat beta cells, EdU day 3 to 6, control medium 5.6", "result": 28.0, "unit": "%"},
      {"measurement": "Z-Score", "setting": "rat beta cells [3]; LOPAC screen at 1 μM, adult rat beta cells, EdU day 3 to 6, hit cut-off three standard deviations", "result": 5.4},
      {"measurement": "final concentration of optimal potency (dose-response studies)", "setting": "rat beta cells [3]; survival and proliferation of rat beta cells, data not shown", "result": 1000, "unit": "nM"}
    ]}
  ]
}
